From US11472778B2, “Hepatitis C virus NS3/4A protease inhibitors” (priority 2017, dated 2022)
Where two headings read alike, the source gives them in different places.

Columns and labels:
[1] = biological target: T1, GT1a D168A NS3/4A protease (UniProt P27958, C1185S/D1194A, species not given); type: biochemical, Hepatitis C virus; settings: read-out: Ki (nM) GT1a D168A NS3/4A Protease
T1 construct: Ki (nM) GT1a D168A NS3/4A Protease
Protocol: (§1) For each assay, 2 nM of NS3/4A protease (GT1, D168A and GT3) was pre-incubated at room temperature for 1 h with increasing concentration of inhibitors in assay buffer [50 mM Tris, 5% glycerol, 10 mM DTT, 0.6 mM LDAO, and 4% dimethyl sulfoxide]. Inhibition assays were performed in nonbinding surface 96-well black half-area plates (Corning) in a reaction volume of 60 μt. […] Three independent data sets were collected for each inhibitor with each protease construct.
as §1, with “(GT1a” for “(GT1, D168A”, “D168A)” for “GT3)”, “(50” for “[50”, “sulfoxide, pH 7.5).” for “sulfoxide].”, “non-binding” for “nonbinding”, “μL.” for “μt.”
(§2) For each assay, 2 nM of NS3/4A protease (GT1a, R155K and D168A) was pre-incubated at room temperature for 1 h with increasing concentration of inhibitors in assay buffer (50 mM Tris, 5% glycerol, 10 mM DTT, 0.6 mM LDAO, and 4% dimethyl sulfoxide, pH 7.5). Inhibition assays were performed in non-binding surface 96-well black half-area plates (Corning) in a reaction volume of 60 μL. […] Three independent data sets were collected for each inhibitor with each protease construct. […] Gibbs free energy of binding was calculated using the following equation: ΔG=RTlnKi

[2] = biological target: GT1a D168A NS3/4A protease; type: biochemical, Hepatitis C virus; settings: Table 3; Ki D168A relative to GT1a WT
Protocol: as §1
(§3) For each assay, 2 nM of NS3/4A protease (GT1a and D168A) was pre-incubated at room temperature for 1 h with increasing concentration of inhibitors in assay buffer (50 mM Tris, 5% glycerol, 10 mM DTT, 0.6 mM LDAO, and 4% dimethyl sulfoxide, pH 7.5). Inhibition assays were performed in non-binding surface 96-well black half-area plates (Corning) in a reaction volume of 60 μL. […] Three independent data sets were collected for each inhibitor with each protease construct.
as §2

[3] = biological target: T2, wild-type GT1a NS3/4A protease (UniProt P27958, C1185S, species not given); type: biochemical, Hepatitis C virus; settings: read-out: Ki (nM) GT1a WT NS3/4A Protease
T2 construct: Ki (nM) GT1a WT NS3/4A Protease
Protocol: as §1, §3, §2

GT3a NS3/4A protease = biological target: T3, GT3a NS3/4A protease (Hepatitis C virus genotype 3a, UniProt Q81495); experiment: biochemical; settings: for Ki (Fold change) GT3a NS3/4A Protease: Ki GT3a relative to GT1a WT
T3 construct: drug-resistant variant D168A, and GT3a NS3/4A protease; made in house; host or cells: Escherichia coli BL21(DE3)
T3 sequence (Q81495 1033-1214): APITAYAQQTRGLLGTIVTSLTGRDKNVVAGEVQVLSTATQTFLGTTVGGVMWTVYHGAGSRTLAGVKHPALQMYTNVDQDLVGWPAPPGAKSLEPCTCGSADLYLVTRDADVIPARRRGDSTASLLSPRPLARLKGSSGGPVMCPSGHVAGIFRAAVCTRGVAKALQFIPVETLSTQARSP
Protocol: as §1

[4] = test system: wild-type HCV replicon in Huh7 cells; experiment: Cell-based drug susceptibility (replicon) assay, wild-type; settings: Hepatitis C virus, read-out: Replicon EC50 (nM) WT
Protocol: (§4) Mutations (R155K, A516T, D168A and D168V) were constructed by site-directed mutagenesis using a Con1 (genotype 1b) luciferase reporter replicon containing the H77 (genotype 1a) NS3 sequence.
(§5) Replicon RNA of each protease variant was introduced into Huh7 cells by electroporation. Replication was then assessed in the presence of increasing concentrations of protease inhibitors by measuring luciferase activity (relative light units) 96 h after electroporation.
(§6) Mutations (R155K, D168A and A156T) were constructed by site-directed mutagenesis using a Con1 (genotype 1b) luciferase reporter replicon containing the H77 (genotype 1a) NS3 sequence.^6 Replicon RNA of each protease variant was introduced into Huh7 cells by electroporation. Replication was then assessed in the presence of increasing concentrations of protease inhibitors by measuring luciferase activity (relative light units) 96 h after electroporation.

[5] = test system: HCV replicon A156T variant in Huh7 cells; experiment: microbe, parasite or virus in culture; type: cell-based, Hepatitis C virus; settings: for EC50: Hepatitis C virus; for Replicon EC50 (Fold change) A156T: Table 4, relative to WT replicon
Protocol: as §4, §5, §6

[6] = test system: HCV replicon D168A variant in Huh7 cells; experiment: microbe, parasite or virus in culture; type: cell-based, Hepatitis C virus; settings: for EC50: Hepatitis C virus; for Replicon EC50 (Fold change) D168A: Table 4, relative to WT replicon
Protocol: as §4, §5, §6

[7] = test system: HCV replicon R155K variant in Huh7 cells; experiment: microbe, parasite or virus in culture; type: cell-based, Hepatitis C virus; settings: for EC50: Hepatitis C virus; for Replicon EC50 (Fold change) R155K: Table 4, relative to WT replicon
Protocol: as §4, §5, §6

[8] = test system: HCV replicon D168V variant in Huh7 cells; experiment: microbe, parasite or virus in culture; type: cell-based, Hepatitis C virus; settings: for EC50: Hepatitis C virus; for Replicon EC50 (Fold change) D168V: Table 4, relative to WT replicon
Protocol: as §4
Replicon RNA of each protease variant was introduced into Huh7 cells by electroporation. Replication was then assessed in the presence of increasing concentrations of protease inhibitors by measuring luciferase activity (relative light units) 96 h after electroporation. […]

[9] = Huh-7, 96 h, Table 2, Huh7 cells, luciferase 96 h
[10] = Huh-7, 96 h, read-out: Replicon EC50 (nM) A156T, Table 2, Huh7 cells, luciferase 96 h
[11] = Huh-7, read-out: Replicon EC50 (nM) A156T, Table 4
[12] = Huh-7, 96 h, read-out: Replicon EC50 (nM) D168A, Table 2, Huh7 cells, luciferase 96 h
[13] = Huh-7, read-out: Replicon EC50 (nM) D168A, Table 4
[14] = Huh-7, 96 h, read-out: Replicon EC50 (nM) R155K, Table 2, Huh7 cells, luciferase 96 h
[15] = Huh-7, read-out: Replicon EC50 (nM) R155K, Table 4
[16] = Huh-7, 96 h, read-out: Replicon EC50 (nM) D168V, Table 2, Huh7 cells, luciferase 96 h
[17] = Huh-7, read-out: Replicon EC50 (nM) D168V, Table 4

| SMILES | Ki ([1]; Table 1) [nM] | Ki ([1]; Table 3) [nM] | Ki (Fold change) GT1a D168A NS3/4A Protease [2] | Ki ([3]; Table 1) [nM] | Ki ([3]; Table 3) [nM] | Ki (GT3a NS3/4A protease) [nM] | Ki (Fold change) GT3a NS3/4A Protease (GT3a NS3/4A protease; Table 3) | EC50 [4, 9] [nM] | EC50 ([4]; Huh-7, Table 4) [nM] | EC50 [5, 10] [nM] | EC50 [5, 11] [nM] | Replicon EC50 (Fold change) A156T [5] | EC50 [6, 12] [nM] | EC50 [6, 13] [nM] | Replicon EC50 (Fold change) D168A [6] | EC50 [7, 14] [nM] | EC50 [7, 15] [nM] | Replicon EC50 (Fold change) R155K [7] | EC50 [8, 16] [nM] | EC50 [8, 17] [nM] | other results |
| --- | --- | --- | --- | --- | --- | --- | --- | --- | --- | --- | --- | --- | --- | --- | --- | --- | --- | --- | --- | --- | --- |
| COc1ccc2nc(C(F)(F)F)c(O[C@@H]3C[C@H]4C(=O)N[C@]5(C(=O)NS(=O)(=O)C6CC6)C[C@H]5/C=C\CCCCC[C@H](NC(=O)OC(C)(C)C)C(=O)N4C3)nc2c1 [Compound 18d] | 157 | 157 ± 12 | (12) fold | 13.3 | 13.3 | 344 | (26) fold | 1.98 | 1.98 | 36.2 | 36.2 | (18) fold | 16.8 | 16.8 | (8) fold | 3.45 | 3.45 | (2) fold | 17.1 | 17.1 | Replicon EC50 (Fold change) D168V [8]: (9) fold |
| COc1ccc2nc(C(F)(F)F)c(O[C@@H]3C[C@H]4C(=O)N[C@]5(C(=O)NS(=O)(=O)C6(C)CC6)C[C@H]5/C=C\CCCCC[C@H](NC(=O)OC(C)(C)C)C(=O)N4C3)nc2c1 [Compound 19d, tert-Butyl ((2R,6S,13aS,14aR,16aS,Z)-2-((7-methoxy-3-(trifluoromethyl)quinoxalin-2-yl)oxy)-14a-(((1-methylcyclopropyl)sulfonyl)carbamoyl)-5,16-dioxo-1,2,3,5,6,7,8,9,10,11,13a,14,14a,15,16,16a-hexadecahydrocyclopropa[e]pyrrolo[1,2-a][1,4]diazacyclopentadecin-6-yl)carbamate] | 118 | 118 ± 13 | (20) fold | 5.77 | 5.77 | 231 | (40) fold | 1.52 | 1.52 | 20.5 | 20.5 | (13) fold | 8.64 | 8.64 | (6) fold | 2.3 | 2.3 | (2) fold | 8.31 | 8.31 | Ki (GT3a NS3/4A protease; read-out: Ki (nM) GT3a NS3/4A Protease, Table 3): 231 ± 74 nM; Replicon EC50 (Fold change) D168V [8]: (5) fold |
| CCc1nc2ccc(OC)cc2nc1O[C@@H]1C[C@H]2C(=O)N[C@]3(C(=O)NS(=O)(=O)C4CC4)C[C@H]3/C=C\CCCCC[C@H](NC(=O)OC3CCCC3)C(=O)N2C1 [Compound 22a, Cyclopentyl ((2R,6S,13aS,14aR,16aS,Z)-14a-((cyclopropylsulfonyl)carbamoyl)-2-((3-ethyl-7-methoxyquinoxalin-2-yl)oxy)-5,16-dioxo-1,2,3,5,6,7,8,9,10,11,13a,14,14a,15,16,16a-hexadecahydrocyclopropa[e]pyrrolo[1,2-a][1,4]diazacyclopentadecin-6-yl)carbamate] | 52.3 | 52.3 ± 3.2 | (42) fold | 1.24 | 1.24 | 211 | (170) fold | 0.14 | 0.14 | 11.8 | 11.8 | (84) fold | 3.6 | 3.6 | (26) fold | 2.08 | 2.08 | (15) fold | 11.9 | 11.9 | Replicon EC50 (Fold change) D168V [8]: (85) fold |
| COc1ccc2nc(C)c(O[C@@H]3C[C@H]4C(=O)N[C@]5(C(=O)NS(=O)(=O)C6CC6)C[C@H]5/C=C\CCCCC[C@H](NC(=O)OC5CCCC5)C(=O)N4C3)nc2c1 [Compound 22b, Cyclopentyl ((2R,6S,13aS,14aR,16aS,Z)-14a-((cyclopropylsulfonyl)carbamoyl)-2-((7-methoxy-3-methylquinoxalin-2-yl)oxy)-5,16-dioxo-1,2,3,5,6,7,8,9,10,11,13a,14,14a,15,16,16a-hexadecahydrocyclopropa[e]pyrrolo[1,2-a][1,4]diazacyclopentadecin-6-yl)carbamate] | 31.9 | 31.9 ± 2.5 | (34) fold | 0.93 | 0.93 | 147 | (158) fold | 0.11 | 0.11 | 2.88 | 2.88 | (26) fold | 2.63 | 2.63 | (24) fold | 0.89 | 0.89 | (8) fold | 4.32 | 4.32 | Replicon EC50 (Fold change) D168V [8]: (39) fold |
| COc1ccc2nc(C)c(O[C@@H]3C[C@H]4C(=O)N[C@]5(C(=O)NS(=O)(=O)C6(C)CC6)C[C@H]5/C=C\CCCCC[C@H](NC(=O)OC5CCCC5)C(=O)N4C3)nc2c1 [Compound 23b, Cyclopentyl ((2R,6S,13aS,14aR,16aS,Z)-2-((7-methoxy-3-methylquinoxalin-2-yl)oxy)-14a-(((1-methylcyclopropyl)sulfonyl)carbamoyl)-5,16-dioxo-1,2,3,5,6,7,8,9,10,11,13a,14,14a,15,16,16a-hexadecahydrocyclopropa[e]pyrrolo[1,2-a][1,4]diazacyclopentadecin-6-yl)carbamate] | 36.3 | 36.3 ± 1.8 |  | 1.13 | 1.13 | 121 |  | 0.13 | 0.13 | 3.99 | 3.99 |  | 2.16 | 2.16 |  | 1.09 | 1.09 |  |  |  |  |
